Measured values taken from ChEMBL document CHEMBL3885861, “Open TG-GATES”.

Organism: Rattus norvegicus
Experiment: Open TG-GATES - Regimen: Daily Repeat
Format: toxicity, organism-based, Sprague-Dawley
Set-up: regimen Daily Repeat, gender Male, age 6 weeks
Details: in vivo, iv, route intravenous injection; for KIDNEY_L / KIDNEY_R / KIDNEY_TOTAL: tissue Kidney; for LIVER: tissue Liver
[1] = 0 mg/kg, 72 h, dose level Control, time 3 day
[2] = 0 mg/kg, 72 h, tissue Blood, dose level Control, time 3 day
[3] = 0 mg/kg, 72 h, tissue Plasma, dose level Control, time 3 day
[4] = 0 mg/kg, […], dose level Control, time 7 day
[5] = 0 mg/kg, […], dose level Control, time 14 day
[6] = 0 mg/kg, […], dose level Control, time 28 day
[7] = 0 mg/kg, […], tissue Blood, dose level Control, time 7 day
[8] = 0 mg/kg, […], tissue Blood, dose level Control, time 14 day
[9] = 0 mg/kg, […], tissue Blood, dose level Control, time 28 day
[10] = 0 mg/kg, […], tissue Plasma, dose level Control, time 7 day
[11] = 0 mg/kg, […], tissue Plasma, dose level Control, time 14 day
[12] = 0 mg/kg, […], tissue Plasma, dose level Control, time 28 day
[13] = 1 mg/kg, 72 h, tissue Blood, dose level High, time 3 day
[14] = 1 mg/kg, 72 h, dose level High, time 3 day
[15] = 1 mg/kg, 72 h, tissue Plasma, dose level High, time 3 day
[16] = 1 mg/kg, […], dose level High, time 7 day
[17] = 1 mg/kg, […], dose level High, time 14 day
[18] = 1 mg/kg, […], dose level High, time 28 day
[19] = 1 mg/kg, […], tissue Blood, dose level High, time 7 day
[20] = 1 mg/kg, […], tissue Blood, dose level High, time 14 day
[21] = 1 mg/kg, […], tissue Blood, dose level High, time 28 day
[22] = 1 mg/kg, […], tissue Plasma, dose level High, time 7 day
[23] = 1 mg/kg, […], tissue Plasma, dose level High, time 14 day
[24] = 1 mg/kg, […], tissue Plasma, dose level High, time 28 day

## CISPLATIN
[1]
  TERMINAL_BW: 225.2 g
  KIDNEY_L: 1 g
  KIDNEY_R: 1 g
  KIDNEY_TOTAL: 1.9 g
[2]
  APTT: 23.7 s
  Bas: 0%
  Eos: 1%
  Fbg: 289.6 mg/dL
  Hb: 12.9 g/dL
  Ht: 39.8%
  Lym: 80.8%
  MCV: 63 fL
  Mono: 2.6%
  Plat: 132.8 x10_4/uL
  RBC: 631.8 x10_4/ul
  Ret: 5.8%
  WBC: 106.8 x10_2/uL
[3]
  ALP: 1659.4 IU/L
  ALT: 40.4 IU/L
  BUN: 16.2 mg/dL
  CRE: 0.2 mg/dL
  DBIL: 0 mg/dL
  GLC: 196.6 mg/dL
  IP: 6.7 mg/dL
  K: 4.2 meq/L
  LDH: 219.6 IU/L
  PL: 136 mg/dL
  RALB: 2.9 g/dL
  TBIL: 0.004 mg/dL
  TC: 69.4 mg/dL
  TG: 113.4 mg/dL
  TP: 5.4 g/dL
  gamma-GTP: 1.6 IU/L
[4]
  TERMINAL_BW: 261.4 g
  KIDNEY_L: 1.1 g
  KIDNEY_R: 1.1 g
  KIDNEY_TOTAL: 2.2 g
  LIVER: 12.3 g
[5]
  TERMINAL_BW: 291.7 g
  KIDNEY_L: 1.2 g
  KIDNEY_R: 1.2 g
  KIDNEY_TOTAL: 2.3 g
[6]
  TERMINAL_BW: 381.4 g
  KIDNEY_L: 1.3 g
  KIDNEY_R: 1.3 g
  KIDNEY_TOTAL: 2.7 g
  LIVER: 15.5 g
[7]
  APTT: 24.4 s
  Bas: 0%
  Eos: 1%
  Fbg: 309.2 mg/dL
  Ht: 40.3%
  Lym: 80%
  MCHC: 32.7%
  MCV: 63.8 fL
  Mono: 2.4%
  PT: 16.1 s
  Plat: 128.5 x10_4/uL
  RBC: 632.6 x10_4/ul
  Ret: 5.5%
  WBC: 155.9 x10_2/uL
[8]
  APTT: 23.9 s
  Bas: 0%
  Eos: 0.8%
  Fbg: 345.4 mg/dL
  Ht: 41.9%
  Lym: 80.8%
  MCHC: 33%
  MCV: 60.9 fL
  Mono: 2.8%
  PT: 15.9 s
  Plat: 117.5 x10_4/uL
  RBC: 688.8 x10_4/ul
  Ret: 3.8%
  WBC: 116.1 x10_2/uL
[9]
  APTT: 24.5 s
  Bas: 0%
  Eos: 1.2%
  Fbg: 311.4 mg/dL
  Hb: 14.6 g/dL
  Ht: 42.7%
  Lym: 81.4%
  MCHC: 34.1%
  MCV: 56.4 fL
  Mono: 3%
  PT: 16 s
  Plat: 104.7 x10_4/uL
  RBC: 757.6 x10_4/ul
  Ret: 2.2%
  WBC: 114.2 x10_2/uL
[10]
  ALP: 1680.4 IU/L
  ALT: 40.2 IU/L
  BUN: 17.6 mg/dL
  CRE: 0.2 mg/dL
  DBIL: 0 mg/dL
  IP: 7.2 mg/dL
  K: 4.3 meq/L
  LDH: 185.6 IU/L
  PL: 135.8 mg/dL
  RALB: 2.9 g/dL
  TBIL: 0.002 mg/dL
  TC: 69.2 mg/dL
  TG: 124.6 mg/dL
  TP: 5.4 g/dL
  gamma-GTP: 2.2 IU/L
[11]
  ALP: 1400.6 IU/L
  ALT: 41.2 IU/L
  AST: 81.4 IU/L
  BUN: 19 mg/dL
  CRE: 0.2 mg/dL
  DBIL: 0 mg/dL
  GLC: 182.2 mg/dL
  IP: 7.2 mg/dL
  K: 4.3 meq/L
  LDH: 164.4 IU/L
  PL: 146.8 mg/dL
  RALB: 3.1 g/dL
  TBIL: 0.002 mg/dL
  TC: 70.4 mg/dL
  TG: 117.6 mg/dL
  TP: 5.8 g/dL
  gamma-GTP: 1.8 IU/L
[12]
  ALP: 1048.2 IU/L
  ALT: 37.8 IU/L
  AST: 65.2 IU/L
  BUN: 19.2 mg/dL
  CRE: 0.2 mg/dL
  DBIL: 0 mg/dL
  GLC: 196.6 mg/dL
  IP: 6.4 mg/dL
  K: 4.2 meq/L
  LDH: 130.2 IU/L
  RALB: 3.1 g/dL
  TBIL: 0.004 mg/dL
  TC: 74.2 mg/dL
  TG: 141.8 mg/dL
  TP: 6 g/dL
  gamma-GTP: 2.8 IU/L
[13]
  APTT: 23.7 s
  Bas: 0%
  Eos: 1%
  Fbg: 288.4 mg/dL
  Ht: 40.9%
  Lym: 87%
  MCHC: 33%
  MCV: 61.4 fL
  Mono: 2.2%
  Neu: 9%
  PT: 15.7 s
  Plat: 137 x10_4/uL
  RBC: 667 x10_4/ul
  Ret: 2.5%
  WBC: 69.2 x10_2/uL
[14]
  KIDNEY_L: 0.9 g
  KIDNEY_R: 1 g
  KIDNEY_TOTAL: 1.9 g
  LIVER: 8.7 g
[15]
  ALP: 1528.2 IU/L
  AST: 75.8 IU/L
  CRE: 0.2 mg/dL
  Ca: 11 mg/dL
  DBIL: 0.002 mg/dL
  GLC: 180.8 mg/dL
  IP: 7.3 mg/dL
  K: 4.3 meq/L
  LDH: 270.4 IU/L
  PL: 132.6 mg/dL
  RALB: 3.1 g/dL
  TBIL: 0.026 mg/dL
  TG: 54.8 mg/dL
  TP: 5.6 g/dL
  gamma-GTP: 1.4 IU/L
[16]
  TERMINAL_BW: 219.4 g
  KIDNEY_L: 1 g
  KIDNEY_R: 1 g
  KIDNEY_TOTAL: 2 g
  LIVER: 10 g
[17]
  TERMINAL_BW: 226 g
  KIDNEY_L: 1.3 g
  KIDNEY_R: 1.3 g
  KIDNEY_TOTAL: 2.6 g
  LIVER: 8.8 g
[18]
  TERMINAL_BW: 172 g
  KIDNEY_L: 2.8 g
  KIDNEY_R: 2.8 g
  KIDNEY_TOTAL: 5.6 g
  LIVER: 6.8 g
[19]
  APTT: 27.5 s
  Bas: 0%
  Eos: 0.8%
  Fbg: 299.8 mg/dL
  Hb: 14.3 g/dL
  Ht: 42.4%
  Lym: 82.8%
  MCHC: 33.6%
  MCV: 59.8 fL
  Mono: 3.6%
  Neu: 11.4%
  PT: 16 s
  Plat: 136.4 x10_4/uL
  RBC: 708.8 x10_4/ul
  Ret: 1%
  WBC: 54.2 x10_2/uL
[20]
  APTT: 26.8 s
  Bas: 0%
  Eos: 0.4%
  Fbg: 276.4 mg/dL
  Hb: 14.9 g/dL
  Ht: 43.4%
  Lym: 80.8%
  MCHC: 34.3%
  MCV: 58.8 fL
  Mono: 4%
  Neu: 13.4%
  PT: 15.3 s
  Plat: 68.4 x10_4/uL
  RBC: 739 x10_4/ul
  Ret: 0.4%
  WBC: 50.8 x10_2/uL
[21]
  APTT: 17.9 s
  Bas: 0%
  Eos: 0%
  Fbg: 270 mg/dL
  Hb: 12.1 g/dL
  Ht: 33%
  Lym: 77%
  MCH: 18.5 pg
  MCHC: 36.7%
  MCV: 50.5 fL
  Mono: 3%
  Neu: 20%
  PT: 16.9 s
  Plat: 3.1 x10_4/uL
  RBC: 653 x10_4/ul
  Ret: 0.1%
  WBC: 32.4 x10_2/uL
[22]
  ALP: 1309.4 IU/L
  ALT: 31.2 IU/L
  AST: 79 IU/L
  BUN: 18.4 mg/dL
  CRE: 0.2 mg/dL
  DBIL: 0.002 mg/dL
  GLC: 170.8 mg/dL
  IP: 5.9 mg/dL
  K: 4.1 meq/L
  LDH: 247.4 IU/L
  PL: 118.8 mg/dL
  RALB: 3.2 g/dL
  TBIL: 0.02 mg/dL
  TC: 63.4 mg/dL
  TG: 64.2 mg/dL
  TP: 5.8 g/dL
  gamma-GTP: 1.6 IU/L
[23]
  ALP: 720.4 IU/L
  ALT: 37.6 IU/L
  AST: 102.8 IU/L
  BUN: 42.2 mg/dL
  CRE: 0.5 mg/dL
  DBIL: 0.002 mg/dL
  GLC: 165.8 mg/dL
  IP: 5.5 mg/dL
  K: 4.2 meq/L
  LDH: 248.4 IU/L
  PL: 134.8 mg/dL
  RALB: 3.1 g/dL
  TBIL: 0.006 mg/dL
  TC: 86 mg/dL
  TG: 43 mg/dL
  TP: 5.8 g/dL
  gamma-GTP: 3.8 IU/L
[24]
  ALP: 311 IU/L
  ALT: 47 IU/L
  AST: 125 IU/L
  BUN: 332 mg/dL
  CRE: 3.6 mg/dL
  Ca: 9.1 mg/dL
  Cl: 93 meq/L
  DBIL: 0.01 mg/dL
  GLC: 210 mg/dL
  IP: 11.7 mg/dL
  K: 5.4 meq/L
  LDH: 2660 IU/L
  Na: 129 meq/L
  PL: 140 mg/dL
  RALB: 2.3 g/dL
  TBIL: 0 mg/dL
  TC: 77 mg/dL
  TG: 91 mg/dL
  TP: 4.5 g/dL
  gamma-GTP: 2 IU/L
